Measurements taken from patent publication US20070048247A1, “Deodorizing tablets” (Kimberly-Clark Worldwide, Inc., priority 2005, published 2007).

Key:
[1] = Example 5 urine odor panel ranking; design: species or system Human; details: for Average Rankings (Group A), Avg. Score / Urine Odor Ranking 1 (number of panelists) / Average Rankings (Group B), Avg. Score / Urine Odor Ranking 4 (number of panelists) / Urine Odor Ranking 5 (number of panelists) / Urine Odor Ranking 8 (number of panelists) / Urine Odor Ranking 6 (number of panelists) / Urine Odor Ranking 7 (number of panelists) / Urine Odor Ranking 2 (number of panelists): 8 mM in urine, 1 least, 8 most urine malodor
Method: Assessments were conducted the following day by asking panelists to rate each jar from 1 (least urine malodor) to 8 (most urine malodor). The results are set forth below in Tables 15-18.

[2] = Example 7 urine odor panel ranking (16 millimolar); design: species or system Human; details: 16 millimolar in urine, 1 least, 10 most urine malodor
Method: The effectiveness of various quinone compounds in reducing urine odor was compared. […] Human female urine was initially collected and pooled at Kimberly-Clark Corporation. The pooled urine was added to mason jars in 50-milliliter aliquots using an automated pipette aid. Powders of the aforementioned quinone compounds (commercially available from Sigma-Aldrich Chemical Co., Inc. of St. Louis, Missouri and Noveon Hilton Davis, Inc. of Cincinnati, Ohio) were weighed and placed into the mason jars containing 50 milliliters of urine so that the final concentration of the powder was 16 millimolar (equivalent to 1 wt. %). The mason jars were placed in an incubator overnight at 37° C. The experimental setup is set forth in more detail below in Table 21.
Jars were wrapped in foil and placed in an incubator at 37° C. overnight. The jars were divided into four groups (C-F), each sharing the same control jar of urine alone (no powder). Assessments were conducted the following day by asking panelists to rate each jar from 1 (least urine malodor) to 10 (most urine malodor).

[3] = Solubility of powder in urine
[4] = Example 6 urine odor panel ranking; design: species or system Human; details: as Example 5, 1 least, 8 most urine malodor
Source text: The quinone compounds chosen for this example were Alizarin Blue Black B, Remazol Brilliant Blue R and Acid Green 25. The results are set forth below in Tables 19 and 20.

[5] = Example 4 urine odor panel ranking; design: species or system Human; details: for Average Rankings, Avg. Score / Urine Odor Ranking 3 (number of panelists) / Urine Odor Ranking 5 (number of panelists) / Urine Odor Ranking 7 (number of panelists) / Urine Odor Ranking 6 (number of panelists) / Urine Odor Ranking 1 (number of panelists) / Urine Odor Ranking 2 (number of panelists) / Urine Odor Ranking 4 (number of panelists): 8 millimolar in urine, scale 1 to 7, 7 most malodorous
Source text: Powders of the aforementioned quinone compounds (commercially available from Sigma-Aldrich Chemical Co., Inc. of St. Louis, Missouri and Noveon Hilton Davis, Inc. of Cincinnati, Ohio) were weighed and placed into the mason jars containing 50 milliliters of urine so that the final concentration of the powder was 8 millimolar (equivalent to 0.5 wt. %).
To aid in the assessment of the quinone compounds, panelists were asked to rank the mason jars from least to most malodorous (on a scale from 1 to 7, with 7 being the most malodors). The results are set forth below in Tables 12 and 13.

[6] = Example 5, 8 mM in 50 milliliters of urine
[7] = Example 7, 16 mM in 50 milliliters of urine

## O=C1c2ccccc2C(=O)c2c(Nc3cccc(S(=O)(=O)[O-])c3)c(Nc3ccc(S(=O)(=O)[O-])cc3)cc(O)c21.[Na+].[Na+] [Alizarin Blue Black B, Mordant Black 13 (Alizarin Blue Black B)]
[1]; Example 5 Group A
  odor reduction performance (in words): performed best
  Average Rankings (Group A), Avg. Score: 1
  Urine Odor Ranking 1 (number of panelists): 4
[2]; Example 7 Group C
  Average Rankings (Group C), Avg. Score: 3
  Urine Odor Ranking 1 (number of panelists): 1
  Urine Odor Ranking 3 (number of panelists): 2
  Urine Odor Ranking 4 (number of panelists): 2
[3]; [6]
  Soluble?: Yes
[3]; [7]
  Soluble?: Yes
[4]
  Average Rankings, Avg. Score: 2.75
  Urine Odor Ranking 1 (number of panelists): 1
  Urine Odor Ranking 3 (number of panelists): 2
  Urine Odor Ranking 4 (number of panelists): 1

## Nc1ccc(O)c2c1C(=O)c1ccccc1C2=O [1-Amino-4-Hydroxyanthraquinone, 1-amino-4-hydroxyanthraquinone]
[5]
  Average Rankings, Avg. Score: 5
  Urine Odor Ranking 3 (number of panelists): 1
  Urine Odor Ranking 5 (number of panelists): 2
  Urine Odor Ranking 7 (number of panelists): 1

## Cc1c(C(=O)O)c(O)cc2c1C(=O)c1c(O)c([C@@H]3O[C@H](CO)[C@@H](O)[C@H](O)[C@H]3O)c(O)c(O)c1C2=O [Carminic Acid, Natural Red 4 (Carminic Acid)]
[2]; Example 7 Group E
  Average Rankings (Group E), Avg. Score: 3.6
  Urine Odor Ranking 1 (number of panelists): 2
  Urine Odor Ranking 3 (number of panelists): 1
  Urine Odor Ranking 4 (number of panelists): 1
  Urine Odor Ranking 9 (number of panelists): 1

## Cc1cc(C)c(S(=O)(=O)[O-])c(C)c1Nc1ccc(Nc2c(C)cc(C)c(S(=O)(=O)[O-])c2C)c2c1C(=O)c1ccccc1C2=O.[Na+].[Na+] [Acid Blue 80]
[1]; Example 5 Group B
  Average Rankings (Group B), Avg. Score: 6.25
  Urine Odor Ranking 4 (number of panelists): 1
  Urine Odor Ranking 5 (number of panelists): 1
  Urine Odor Ranking 8 (number of panelists): 2
[2]; Example 7 Group F
  Average Rankings (Group F), Avg. Score: 5.4
  Urine Odor Ranking 1 (number of panelists): 1
  Urine Odor Ranking 5 (number of panelists): 1
  Urine Odor Ranking 6 (number of panelists): 1
  Urine Odor Ranking 7 (number of panelists): 1
  Urine Odor Ranking 8 (number of panelists): 1
[3]; [6]
  Soluble?: Yes
[3]; [7]
  Soluble?: Mostly

## CCNc1ccc(NCC)c2c1C(=O)c1ccccc1C2=O [Solvent Blue 59]
[5]
  Average Rankings, Avg. Score: 5.25
  Urine Odor Ranking 3 (number of panelists): 1
  Urine Odor Ranking 5 (number of panelists): 1
  Urine Odor Ranking 6 (number of panelists): 1
  Urine Odor Ranking 7 (number of panelists): 1

## Nc1c(S(=O)(=O)[O-])cc(Nc2cccc(S(=O)(=O)CCOS(=O)(=O)[O-])c2)c2c1C(=O)c1ccccc1C2=O.[Na+].[Na+] [Remazol Brilliant Blue R, Reactive Blue 19 (Remazol Brilliant Blue R)]
[5]
  reducing urine odor (in words): most effective in reducing urine odor
  Average Rankings, Avg. Score: 1.5
  Urine Odor Ranking 1 (number of panelists): 2
  Urine Odor Ranking 2 (number of panelists): 2
[1]; Example 5 Group B
  odor reduction performance (in words): performed well
  Average Rankings (Group B), Avg. Score: 3
  Urine Odor Ranking 1 (number of panelists): 2
  Urine Odor Ranking 4 (number of panelists): 1
  Urine Odor Ranking 6 (number of panelists): 1
[2]; Example 7 Group E
  Average Rankings (Group E), Avg. Score: 3.4
  Urine Odor Ranking 1 (number of panelists): 1
  Urine Odor Ranking 2 (number of panelists): 2
  Urine Odor Ranking 3 (number of panelists): 1
  Urine Odor Ranking 9 (number of panelists): 1
[4]
  Average Rankings, Avg. Score: 4.75
  Urine Odor Ranking 2 (number of panelists): 1
  Urine Odor Ranking 3 (number of panelists): 1
  Urine Odor Ranking 7 (number of panelists): 2

## O=C1c2ccccc2C(=O)c2c(O)ccc(O)c21 [1,4-Dihydroxyanthraquinone, 1,4-dihydroxyanthraquinone]
[5]
  Average Rankings, Avg. Score: 4.75
  Urine Odor Ranking 2 (number of panelists): 1
  Urine Odor Ranking 4 (number of panelists): 1
  Urine Odor Ranking 6 (number of panelists): 1
  Urine Odor Ranking 7 (number of panelists): 1

## Nc1c(S(=O)(=O)O)cc(Nc2ccc(Nc3nc(Cl)nc(Nc4cccc(S(=O)(=O)O)c4)n3)c(S(=O)(=O)O)c2)c2c1C(=O)c1ccccc1C2=O [Procion Blue HB, Reactive Blue 2 (Procion Blue HB)]
[5]
  Average Rankings, Avg. Score: 3.5
  Urine Odor Ranking 1 (number of panelists): 2
  Urine Odor Ranking 2 (number of panelists): 1
  Urine Odor Ranking 4 (number of panelists): 1
  Urine Odor Ranking 7 (number of panelists): 1
[1]; Example 5 Group A
  Average Rankings (Group A), Avg. Score: 6.5
  Urine Odor Ranking 5 (number of panelists): 1
  Urine Odor Ranking 6 (number of panelists): 1
  Urine Odor Ranking 7 (number of panelists): 1
  Urine Odor Ranking 8 (number of panelists): 1
[2]; Example 7 Group F
  Average Rankings (Group F), Avg. Score: 5.2
  Urine Odor Ranking 1 (number of panelists): 1
  Urine Odor Ranking 4 (number of panelists): 1
  Urine Odor Ranking 5 (number of panelists): 1
  Urine Odor Ranking 6 (number of panelists): 1
  Urine Odor Ranking 9 (number of panelists): 1
  Urine Odor Ranking 10 (number of panelists): 1
[3]; Example 4, 8 millimolar in 50 milliliters of urine
  Soluble?: Yes
[3]; [6]
  Soluble?: Yes
[3]; [7]
  Soluble?: Yes

## Cc1ccc(Nc2ccc(O)c3c2C(=O)c2ccccc2C3=O)c(S(=O)(=O)[O-])c1.[Na+] [Acid Violet 43]
[1]; Example 5 Group A
  Average Rankings (Group A), Avg. Score: 4.75
  Urine Odor Ranking 2 (number of panelists): 2
  Urine Odor Ranking 7 (number of panelists): 1
  Urine Odor Ranking 8 (number of panelists): 1
[2]; Example 7 Group D
  Average Rankings (Group D), Avg. Score: 4.2
  Urine Odor Ranking 1 (number of panelists): 1
  Urine Odor Ranking 3 (number of panelists): 1
  Urine Odor Ranking 4 (number of panelists): 1
  Urine Odor Ranking 5 (number of panelists): 1
  Urine Odor Ranking 8 (number of panelists): 1
[3]; [6]
  Soluble?: Yes
[3]; [7]
  Soluble?: No

## CC(=O)Nc1ccc(Nc2cc(S(=O)(=O)[O-])c(N)c3c2C(=O)c2ccccc2C3=O)cc1.[Na+] [Acid Blue 40]
[1]; Example 5 Group B
  odor reduction performance (in words): performed well
  Average Rankings (Group B), Avg. Score: 4.25
  Urine Odor Ranking 2 (number of panelists): 1
  Urine Odor Ranking 4 (number of panelists): 2
  Urine Odor Ranking 7 (number of panelists): 1
[2]; Example 7 Group F
  Average Rankings (Group F), Avg. Score: 3.8
  Urine Odor Ranking 1 (number of panelists): 1
  Urine Odor Ranking 2 (number of panelists): 1
  Urine Odor Ranking 3 (number of panelists): 1
  Urine Odor Ranking 4 (number of panelists): 1
  Urine Odor Ranking 9 (number of panelists): 1
[3]; [6]
  Soluble?: Yes
[3]; [7]
  Soluble?: Somewhat

## Cc1cc(O)c2c(c1)C(=O)c1cc(O)cc(O)c1C2=O [Emodin]
[2]; Example 7 Group C
  Average Rankings (Group C), Avg. Score: 7.8
  Urine Odor Ranking 5 (number of panelists): 1
  Urine Odor Ranking 8 (number of panelists): 2
  Urine Odor Ranking 9 (number of panelists): 2
[3]; [7]
  Soluble?: No

## Acid Black 48
[2]; Example 7 Group C
  Average Rankings (Group C), Avg. Score: 7.2
  Urine Odor Ranking 2 (number of panelists): 1
  Urine Odor Ranking 6 (number of panelists): 1
  Urine Odor Ranking 8 (number of panelists): 1
  Urine Odor Ranking 10 (number of panelists): 2
[3]; [7]
  Soluble?: Somewhat

## CC(=O)N(C)c1ccc(Nc2cc(S(=O)(=O)[O-])c(N)c3c2C(=O)c2ccccc2C3=O)cc1.[Na+] [Acid Blue 41]
[1]; Example 5 Group A
  Average Rankings (Group A), Avg. Score: 5
  Urine Odor Ranking 4 (number of panelists): 1
  Urine Odor Ranking 5 (number of panelists): 2
  Urine Odor Ranking 6 (number of panelists): 1
[2]; Example 7 Group C
  Average Rankings (Group C), Avg. Score: 3.4
  Urine Odor Ranking 2 (number of panelists): 2
  Urine Odor Ranking 3 (number of panelists): 2
  Urine Odor Ranking 7 (number of panelists): 1
[3]; [6]
  Soluble?: Yes
[3]; [7]
  Soluble?: Yes

## Cc1ccc(Nc2ccc(Nc3ccc(C)cc3)c3c2C(=O)c2ccccc2C3=O)cc1 [Solvent Green 3]
[5]
  Average Rankings, Avg. Score: 3.75
  Urine Odor Ranking 2 (number of panelists): 1
  Urine Odor Ranking 3 (number of panelists): 1
  Urine Odor Ranking 4 (number of panelists): 1
  Urine Odor Ranking 6 (number of panelists): 1
